Measured values: patent publication US10295530B2, “Functional assay for cancer recurrence and malignant potential” (THE BRIGHAM AND WOMEN'S HOSPITAL, INC., priority 2012, dated 2019)

How the values were obtained:
[1] = system: GFP+ responder cells; experiment: Co-culture of GFP+ responder cells with BMCs from aspirin or vehicle treated mice, CD24 by flow cytometry; format: cell-based, human; conditions: BMCs from aspirin treated LBC-bearing mice; same with vehicle
Method: FIG. 35D. Flow cytometric analysis of CD24 expression on GFP+ responder cells co-cultured with indicated BMCs.
BMCs were harvested and tested for functional activity as previously described (McAllister et al., 2008). In vitro instigation assays were conducted by co-culturing 1×10^4 GFP-positive responder tumor cells with 1×10^6 BMCs harvested from mice bearing […], TNBC or LBC Instigators. Co-cultured cells were maintained for 4 days in BMDC medium (DMEM, 5% FBS, 5% horse serum, 10^−6 M hydrocortisone), adding fresh medium on day 2.
In order to understand whether BMCs from LBC tumor bearing mice directly mediated tumor cell surface enrichment of CD24, adherent GFP-positive (GFP+) responding tumor cells were cultured with BMCs prepared from various cohorts of mice and analyzed tumor cell expression of CD24 after 4 days by flow cytometry.

[2] = system: instigating LBC tumor / host platelets and bone marrow; experiment: Aspirin treatment in LBC-mediated systemic instigation: instigating LBC tumor, platelet counts, bone marrow VEGFR2+ cells; format: in vivo, mice; conditions: aspirin 100 mg/kg i.p. once per week vs vehicle
Method: (§1) FIG. 35A. Experimental scheme to test effects of aspirin on LBC-mediated systemic instigation. All mice were injected with responders and LBC instigating tumors and treated with either 100 mg/kg aspirin or vehicle control; n=10 (5 mice per cohort for 2 independent experiments).
FIG. 35C. Numbers of VEGFR2+ cells in the bone marrow of experimental mice relative to those of cancer-free mice.
(§2) 450 mg Aspirin (Sigma, A2093-100G) was dissolved in 11 ml DMSO to make a 41 mg/ml concentrated stock solution. 30 min before injection, 1.6 ml of stock solution was diluted in 11.6 ml of PBS to make a 5 mg/ml injection solution.
(§3) Vehicle control was made with 1.6 ml DMSO diluted in 11.6 ml PBS. Mice were injected i.p. with aspirin at 100 mg/kg, once per week. A similar volume:weight ratio of vehicle was administered to control animals.
In order to explore therapeutic potential and identify whether platelets were necessary for delivering the pro-tumorigenic instigating stimulus in the LBC macroenvironment, we treated mice with aspirin, which inhibits platelet activity (28). Mice were injected with LBC instigators that were permitted to grow for 4 weeks prior to initiation of weekly treatments of either aspirin or vehicle control; responders were then injected into these mice two days following the first aspirin treatment (FIG. 35A). […]

[3] = system: responding tumors (HMLER-HR) opposite instigating LBC; experiment: Aspirin treatment in LBC-mediated systemic instigation: responding tumors; format: in vivo, mice; conditions: aspirin 100 mg/kg i.p. once per week
Method: as §1
All experiments were performed in accordance with regulations of the Children's Hospital Boston Institutional Animal Care and Use Committee (protocol 09-12-1566). Unless otherwise indicated, tumor cells were suspended in 20% […] (BD Biosciences) and injected subcutaneously into nonirradiated mice. Tumors were measured on the flanks of live mice using calipers; volume was calculated as 0.5*length*(width^2).
as §2, §3
In order to explore therapeutic potential and identify whether platelets were necessary for delivering the pro-tumorigenic instigating stimulus in the LBC macroenvironment, we treated mice with aspirin, which inhibits platelet activity (28). Mice were injected with LBC instigators that were permitted to grow for 4 weeks prior to initiation of weekly treatments of either aspirin or vehicle control; responders were then injected into these mice two days following the first aspirin treatment (FIG. 35A). While responding tumors formed in 90% of the mice treated with vehicle control, only 20% of the mice treated with aspirin developed responding tumors (FIG. 35B).

[4] = system: HMLER-HR responder cells; experiment: HMLER-HR responder cells in depleted medium (D.M.) plus EGF and/or insulin, 4 days: flow cytometry and qPCR; format: cell-based, human; conditions: for CD44 expression / CD44/CD24 expression patterns (flow cytometry) / Oct4 expression (qPCR) / Zeb1 expression (qPCR) / c-Myc expression (qPCR): added to cells kept in D.M. for 4 days, relative to C.M.
Text: FIG. 23D. Flow cytometric density plots representing CD44/CD24 profiles of responding tumor cells after 4 days in depleted medium, D.M. (medium devoid of EGF and insulin), or D.M.+indicated supplements. Graph represents average responding tumor cell CD441CD24 profiles under indicated conditions relative to that of C.M (samples run in triplicate).
FIG. 23E. Expression levels of indicated malignancy profile genes in responder tumor cells after 4 days in indicated culture conditions relative to those maintained in C.M. Data represent average of three independent experiments, where each sample was run in triplicate.
FIG. 26E. Expression levels of c-myc in HMLER-HR responding tumor cells after 4 days in response to indicated doses of EGF. Data are represented relative to cells that had been maintained in depleted medium (D.M.; medium devoid of EGF and insulin). Data are expressed as mean±SEM; samples tested in triplicate.
HMLER-HR cells were maintained in DMEM-F12 (1:1) medium, supplemented with 5% calf serum, 10 ng/ml human recombinant EGF (Sigma E9644), 10 μg/ml insulin (Sigma 19278), 1 μg/ml hydrocortisone (Sigma 110888) and 1% penicillin-streptomycin. BPLER cells were maintained in WIT Medium (STEMGENT), and MCF7-Ras cells in DMEM media (Thermo Scientific) supplemented with 10% heat inactivated FBS (GIBCO), and 1% penicillin-streptomycin. BT549 cells were maintained in RPMI medium supplemented with 10% FBS.
RNA was extracted from cells or snap-frozen tissues using Trizol reagent following manufacturer's instructions (INVITROGEN). RNA was retrotranscribed with ProtoScript AMV First Strand cDNA Synthesis Kit (New England BioLabs). PCR amplification was performed on a ABI Prism 7900 sequence detector using SYBR-Green (Applied Biosystems). Analysis was done using delta-delta Ct method, normalizing first to GAPDH.
Whether EGFR and IGF1R signaling were necessary and/or sufficient for modulating responding tumor malignancy remained to be investigated. To do so, the effects of either depleting EGF and/or insulin from HMLER-HR responder cells that had been cultured in complete medium (C.M.) or adding EGF and/or insulin to cells that had been cultured in depleted medium (D.M., medium depleted of both EGF and insulin) were examined. For these studies, cells were treated under various conditions for 4 days, then assessed differentiation status by flow cytometry, expression of malignancy factors (e.g. Oct-4, Zeb1, c-myc) by qPCR, and tumor-forming capacity by soft agar colony formation.

[5] = patients treated with erlotinib (Numico et al., 2011); cited from earlier work

| Molecule | CD44 expression / CD44/CD24 expression patterns (flow cytometry) [4] | Oct4 expression (qPCR) [4] | Zeb1 expression (qPCR) [4] | c-Myc expression (qPCR) [4] | other results |
| --- | --- | --- | --- | --- | --- |
| CC(=O)Oc1ccccc1C(=O)O [aspirin, Aspirin] |  |  |  |  | increase in tumor cell CD24 expression above control BMCs from tumor-free mice [1]: ~90%; instigating LBC tumor growth [2]: did not significantly affect; incorporation of VEGFR2-positive cells into responding tumor sites ([3]; LBC instigating environment): completely inhibited; p-STAT3 in responding tumor site tissues ([3]; LBC instigating environment): negative; mice that developed responding tumors (incidence) ([3]; LBC instigators, vehicle control 90%): 20% |
| EGF: human recombinant EGF (Sigma E9644) | sufficient to restore | unaffected | restored | restored | c-myc upregulation in response to doses of EGF ([4]; HMLER-HR, 4 days, relative to D.M.): dose-dependent |
| C#Cc1cccc(Nc2ncnc3cc(OCCOC)c(OCCOC)cc23)c1 [erlotinib] |  |  |  |  | adverse effect reported for patients [5]: skin rash |
| insulin: insulin (Sigma 19278), medium supplement | not sufficient to restore | restored | remained significantly lower than the controls | remained significantly lower than the controls |  |
